Measured values reported in US20250326771A1, “PIPERAZINE DERIVATIVES USEFUL IN HIV THERAPY” (VIIV HEALTHCARE COMPANY, priority 2022, published 2025).
Read-outs that look alike come from different tables or passages of the source.

How the values were obtained:
[1] = test system: Jurkat HIV-luciferase clones; experiment: Jurkat latency reversal assay; assay type: cell-based; conditions: Homo sapiens, 48 h; Jurkat latency reversal assay potency; read-out: Jurkat pEC50 (converted)
How it was run: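 Latency reversal was scored as provirus-driven luciferase luminescence in pooled Jurkat HIV-luc clones after 48 h compound exposure at 37° C. EC50 and maximal activation over vehicle were fitted with a four-parameter logistic model.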

[2] = molecular target: cIAP1-BIR3 (Homo sapiens (Human), UniProt Q13490); experiment: BIR binding assay (FRET competition), cIAP1 BIR3; conditions: for cIAP1 BIR3 vs BIR2 separation window: fold separation (FS) for cIAP1
Sequence of cIAP1-BIR3 (Q13490 253-363): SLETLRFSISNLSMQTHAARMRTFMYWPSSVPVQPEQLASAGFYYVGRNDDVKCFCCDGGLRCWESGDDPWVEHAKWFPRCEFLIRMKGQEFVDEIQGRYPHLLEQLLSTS
How it was run: (§1)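 615/665 nm FRET ratio. Compound, His-domain and 200 nM AF647-SMAC peptide incubated 60 min, then 2 nM Eu-W1024 for 30 min. Domains: cIAP1-BIR3 50 nM; XIAP-BIR3 100 nM; cIAP1-BIR2, cIAP2-BIR2 325 nM each. 15-pt 3-fold series; variable-slope IC50.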

[3] = molecular target: cIAP1-BIR2 (Homo sapiens (Human), UniProt Q13490); experiment: BIR binding assay (FRET competition), cIAP1 BIR2
Sequence of cIAP1-BIR2 (Q13490 173-257): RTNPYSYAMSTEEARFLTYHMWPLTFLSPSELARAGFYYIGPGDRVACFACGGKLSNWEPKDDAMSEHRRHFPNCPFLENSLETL
How it was run: as §1

[4] = molecular target: cIAP2-BIR3 (Homo sapiens (Human), UniProt Q13489); experiment: BIR binding assay (FRET competition), cIAP2 BIR3; conditions: for cIAP2 BIR3 vs BIR2 separation window: fold separation (FS) for cIAP2
Sequence of cIAP2-BIR3 (Q13489 238-349): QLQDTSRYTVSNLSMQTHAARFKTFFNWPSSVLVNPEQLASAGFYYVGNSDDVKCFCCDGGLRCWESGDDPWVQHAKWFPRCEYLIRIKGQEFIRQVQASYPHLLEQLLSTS

[5] = molecular target: cIAP2-BIR2 (Homo sapiens (Human), UniProt Q13489); experiment: BIR binding assay (FRET competition), cIAP2 BIR2
Sequence of cIAP2-BIR2 (Q13489 158-242): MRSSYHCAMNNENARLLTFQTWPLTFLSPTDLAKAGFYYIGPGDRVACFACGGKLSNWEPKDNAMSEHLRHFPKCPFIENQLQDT
How it was run: as §1

[6] = molecular target: XIAP-BIR3 (Homo sapiens (Human), UniProt P98170); experiment: BIR binding assay (FRET competition), XIAP BIR3; conditions: for XIAP BIR3 vs BIR2 separation window: fold separation (FS) for XIAP
Sequence of XIAP-BIR3 (P98170 241-356): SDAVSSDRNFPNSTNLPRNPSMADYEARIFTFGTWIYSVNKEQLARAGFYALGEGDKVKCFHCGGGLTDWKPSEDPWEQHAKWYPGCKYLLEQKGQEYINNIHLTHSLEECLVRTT
How it was run: as §1

[7] = molecular target: XIAP-BIR2 (Homo sapiens (Human), UniProt P98170); experiment: BIR binding assay (FRET competition), XIAP BIR2; conditions: read-out: XIAP BIR2 (pIC50) (converted)
Sequence of XIAP-BIR2 (P98170 124-240): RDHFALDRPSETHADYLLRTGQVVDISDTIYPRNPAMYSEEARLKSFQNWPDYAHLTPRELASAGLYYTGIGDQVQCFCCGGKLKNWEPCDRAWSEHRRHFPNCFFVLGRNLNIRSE
How it was run: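 Competitive TR-FRET used His-tagged XIAP-BIR2 (200 nM) and 200 nM AlexaFluor647-labelled AVPIAQKSE SMAC peptide in HEPES buffer pH 7.4 with CHAPS, glycerol and DTT, incubated 60 min before 30 min with 2 nM Eu-W1024. The 615/665 nm ratio from a 15-point, 3-fold series was fit with a four-parameter model for IC50/pIC50.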

SMILES	EC50 [1]	IC50 [2]	cIAP1 BIR3 vs BIR2 separation window [2]	IC50 [3]	IC50 [4]	cIAP2 BIR3 vs BIR2 separation window [4]	IC50 [5]	IC50 [6]	XIAP BIR3 vs BIR2 separation window [6]	IC50 ([7]; FRET competition binding)	IC50 ([7]; FRET competition)
C[C@@H]1CN(CC(=O)N2CC(C)(C)c3[nH]c(=O)c(Cc4ccc(F)cc4)cc32)[C@@H](CN2CCO[C@H](COc3cccc(OC[C@@H]4CN(C[C@H]5CN[C@H](C)CN5CC(=O)N5CC(C)(C)c6[nH]c(=O)c(Cc7ccc(F)cc7)cc65)CCO4)c3Br)C2)CN1 [Example 87, 1,1′-(2,2′-((3R,3′R,6R,6′R)-(((2S,2'S)-(((2-bromo-1,3-phenylene)bis(oxy))bis(methylene))bis(morpholine-2,4-diyl))bis(methylene))bis(3-methylpiperazine-6,1-diyl))bis(acetyl))bis(6-(4-fluorobenzyl)-3,3-dimethyl-1,2,3,4-tetrahydro-5H-pyrrolo[3,2-b]pyridin-5-one)]	0.49 to 12.6 nM	7.94 to 15.8 nM	+++ (10,000>FS>1,000)	1000 to 3160 nM	7.94 to 15.8 nM	+++ (10,000>FS>1,000)	3160 to 10000 nM	7.94 to 15.8 nM	++++ (FS>10,000)	10000 to 51300 nM	–
C[C@@H]1CN(CC(=O)N2CC(C)(C)c3[nH]c(=O)c(Cc4ccc(F)cc4)cc32)[C@@H](CN2CCO[C@H](COCc3c(F)c(F)c(COC[C@@H]4CN(C[C@H]5CN[C@H](C)CN5CC(=O)N5CC(C)(C)c6[nH]c(=O)c(Cc7ccc(F)cc7)cc65)CCO4)c(F)c3F)C2)CN1 [Example 85, 1,1′-(2,2′-((3R,3′R,6R,6′R)-(((2S,2'S)-((((perfluoro-1,4-phenylene)bis(methylene))bis(oxy))bis(methylene))bis(morpholine-2,4-diyl))bis(methylene))bis(3-methylpiperazine-6,1-diyl))bis(acetyl))bis(6-(4-fluorobenzyl)-3,3-dimethyl-1,2,3,4-tetrahydro-5H-pyrrolo[3,2-b]pyridin-5-one)]	0.49 to 12.6 nM	7.94 to 15.8 nM	+++ (10,000>FS>1,000)	3160 to 10000 nM	15.8 to 31.6 nM	+++ (10,000>FS>1,000)	3160 to 10000 nM	31.6 to 501 nM	++++ (FS>10,000)	10000 to 51300 nM	–
C[C@@H]1CN(CC(=O)N2CC(C)(C)c3[nH]c(=O)c(Cc4ccc(F)cc4)cc32)[C@@H](CN2CCO[C@H](COc3ccccc3Oc3ccccc3OC[C@@H]3CN(C[C@H]4CN[C@H](C)CN4CC(=O)N4CC(C)(C)c5[nH]c(=O)c(Cc6ccc(F)cc6)cc54)CCO3)C2)CN1 [Example 68, 1,1′-(2,2′-((3R,3′R,6R,6′R)-(((2S,2'S)-(((oxybis(2,1-phenylene))bis(oxy))bis(methylene))bis(morpholine-2,4-diyl))bis(methylene))bis(3-methylpiperazine-6,1-diyl))bis(acetyl))bis(6-(4-fluorobenzyl)-3,3-dimethyl-1,2,3,4-tetrahydro-5H-pyrrolo[3,2-b]pyridin-5-one)]	0.49 to 12.6 nM	15.8 to 31.6 nM	+++ (10,000>FS>1,000)	3160 to 10000 nM	7.94 to 15.8 nM	+++ (10,000>FS>1,000)	1000 to 3160 nM	7.94 to 15.8 nM	+++ (10,000>FS>1,000)	10000 to 51300 nM	–
C[C@@H]1CN(CC(=O)N2CC(C)(C)c3[nH]c(=O)c(Oc4ccc(Br)cc4)cc32)[C@@H](CN2CCO[C@H](C(=O)NCc3ccc(CNC(=O)[C@@H]4CN(C[C@H]5CN[C@H](C)CN5CC(=O)N5CC(C)(C)c6[nH]c(=O)c(Oc7ccc(Br)cc7)cc65)CCO4)cc3)C2)CN1 [Compound 183, (2S,2′S)-N,N′-(1,4-phenylenebis(methylene)) bis(4-(((2R,5R)-1-(2-(6-(4-bromophenoxy)-3,3-dimethyl-5-oxo-2,3,4,5-tetrahydro-1H-pyrrolo[3,2-b]pyridin-1-yl)-2-oxoethyl)-5-methylpiperazin-2-yl)methyl)morpholine-2-carboxamide)]	63.1 to 316 nM	1.38 to 7.94 nM	+++ (10,000>FS>1,000)	1000 to 3160 nM	1.38 to 7.94 nM	+++ (10,000>FS>1,000)	1000 to 3160 nM	31.6 to 501 nM	+++ (10,000>FS>1,000)	–	10000 to 51300 nM
